According to patent publication US20080031884A1, “COMPOSITIONS AND METHODS FOR TREATING, REDUCING, AMELIORATING, OR ALLEVIATING POSTERIOR-SEGMENT OPHTHALMIC DISEASES” (priority 2006, published 2008):
Several values for one entry are separate records, joined by “and”; a condition that tells them apart may be missing. Equal entries are not always repeated. Entries after “also recorded” stand apart in the source; their conditions may differ.

Assays:
[1] = system: leukocytes (PMN) in aqueous humor; assay: Leukocytes (PMN) measurement in aqueous humor, rabbit paracentesis model; format: in vivo; conditions: aqueous humor at the second paracentesis; for PMN (number/μl): raw data per sample; for PMN numbers, Mean (number/μl): group mean
Protocol: Each rabbit was placed in a restraint device and tagged with the alphanumeric code. The formulations were instilled (50 μl) into the conjunctival sac of both eyes 180, 120, 90 and 30 min before the first paracentesis; then 15, 30, 90 min after the first paracentesis. To perform the first paracentesis the animals were anaesthetized by intraveneous injection of 5 mg/kg Zoletil® (Virbac; 2.5 mg/kg tiletamine HCl and 2.5 mg/kg zolazepam HCl) and one drop of local anesthetic (Novesina®, Novartis) was administered to the eye. Anterior chamber paracentesis was performed with a 26 G needle attached to a tuberculin syringe; the needle was introduced into the anterior chamber through the cornea, taking care not to damage the tissues. Two hours after the first paracentesis, the animals were sacrificed with 0.4 ml Tanax® (Intervet International B.V.) and the second paracentesis was performed. About 100 μl of aqueous humor were removed at the second paracentesis. Aqueous humor was immediately split in four aliquots and stored at −80° C. until analysis. Then both eyes were enucleated and the iris-ciliary body was carefully excised, placed in polypropylene tubes, and stored at −80° C. until analysis.
For the determination of the number of leukocytes we used a haemocytometer (Improved Neubauer Chamber; Brigth-line, Hausser Scientific) and a Polyvar 2 microscope (Reichert-Jung).

[2] = system: rabbit eye (anterior chamber paracentesis); assay: Rabbit paracentesis model, overall anti-inflammatory activity; format: in vivo; conditions: 0.1%, 0.5% and 1% topical formulations; preliminary conclusions; listed as BOL-303242-X
Text: Inflammatory processes are multidimensional in origin, and are characterized by complex cellular and molecular events involving numerous components all of which have not been identified. Prostaglandins are among these mediators and play an important role in certain forms of ocular inflammation. Paracentesis of the anterior chamber in the rabbit eye induces inflammatory reaction due to the disruption of the blood-aqueous barrier (“BAB”), which is mediated, at least in part, by prostaglandin E2 [References 1-3 below]. Intraocular or topical administration of PGE2 disrupts the BAB. [Reference 4, below] The treatment schedule adopted in this study was similar to the clinical NSAIDs (Ocufen) treatment schedule used by surgeons for patients before cataract surgery.
Each rabbit was placed in a restraint device and tagged with the alphanumeric code. The formulations were instilled (50 μl) into the conjunctival sac of both eyes 180, 120, 90 and 30 min before the first paracentesis; then 15, 30, 90 min after the first paracentesis. To perform the first paracentesis the animals were anaesthetized by intraveneous injection of 5 mg/kg Zoletil® (Virbac; 2.5 mg/kg tiletamine HCl and 2.5 mg/kg zolazepam HCl) and one drop of local anesthetic (Novesina®, Novartis) was administered to the eye. […]

[3] = Side effects of corticosteroids (very preliminary data, not shown)

SMILES: Cc1ccc2c(NCC(O)(CC(C)(C)c3cc(F)cc4c3OCC4)C(F)(F)F)cccc2n1 (stereo not drawn) [BOL]
- PMN (number/μl) ([1]; 1% topical formulation): 30 number/μl and 20 number/μl and 40 number/μl
- Anti-inflammatory activity in the rabbit paracentesis model (conclusion) [2]: active; also recorded: as effective an anti-inflammatory drug as some of the commonly accepted prior-art steroids or NSAID
- Side effects of corticosteroids [3]: does not have some of the side effects of corticosteroids

SMILES: C[C@@H]1C[C@H]2[C@@H]3CCC4=CC(=O)C=C[C@]4(C)[C@@]3(F)[C@@H](O)C[C@]2(C)[C@@]1(O)C(=O)CO [Dex, dexamethasone]
- PMN numbers, Mean (number/μl) ([1]; 0.1% topical formulation): 30.000 number/μl

SMILES: CC(C(=O)O)c1ccc(-c2ccccc2)c(F)c1 (stereo not drawn) [F, flurbiprofen]
- PMN numbers, Mean (number/μl) ([1]; 0.03% topical formulation): 30.000 number/μl

SMILES: CCOC(=O)O[C@]1(C(=O)OCCl)CC[C@H]2[C@@H]3CCC4=CC(=O)C=C[C@]4(C)[C@H]3[C@@H](O)C[C@@]21C [LE, loteprednol etabonate]
- PMN (number/μl) ([1]; 0.5% topical formulation): 40 number/μl and 20 number/μl and 30 number/μl
